{"source": "patent US20060292243A1", "about": "“Arsenic compounds for the treatment of the arsenic-sensitive blast-cell related diseases” (priority 2005, published 2006)", "key": {"[1]": {"tested_on": "PBMCs (peripheral blood mononuclear cells)", "assay": "PI staining, cell death within all PBMCs by flowcytometry", "assay_type": "cell-based", "excerpt": "Arsenic trioxide (Asadin®) induces differentiation and apoptosis of malignant cells in vitro and in vivo and has been used in the treatment of a variety of hematological malignancies, the main goal of this example is to try to identify the apoptotic effect of arsenic trioxide on various PBMCs (peripheral blood mononuclear cells), and the methodologies used in this invention include:\n1. The isolation procedure using Ficoll Plaque for exploiting the different densities of RBCs and PBMCs to separate them.\n2. The detection of apoptosis by PI staining through flowcytometry.\nIn the PI-based study, under different concentrations of arsenic trioxide (0, 0.5, 2.5, 5, or 10 μM), the percentages of cell death (within all PBMCs) in 24 hr and 48 hr were calculated respectively in Table 1.1."}, "T lymphocytes (CD3+)": {"tested_on": "T lymphocytes (CD3+)", "assay": "Caspase-3 (Phiphilux) apoptosis within gated PBMC subsets", "assay_type": "cell-based", "excerpt": "3. The detection of apoptosis within different subsets of PBMCs by the combination of mAb-fluorescein tandem staining and the treatment of Phiphilux through flowcytometry. Phiphilux is a substrate of caspase-3, composed of a specific oligo-peptide with its sequence subjected to functional caspase-3 cutting and, at each end of the peptide, is covalently coupled to two identical fluorophores.\nThus, the conclusion is that T lymphocytes are more sensitive to arsenic trioxide according the flow data."}, "OVA-specific IgE": {"tested_on": "OVA-specific IgE", "assay": "OVA-specific IgE in serum of OVA-immunized mice", "assay_type": "in vivo, BALB/c mice", "procedure": "(§1) BALB/c mice (female, 6-8 weeks) were immunized with ovalbumin (OVA) at day 0, 14, 21 and 28. 38 days later, animals were injected with arsenic trioxide (ATO) i.p. for 7 days and antigen challenges with OVA were performed at day 42, 43, 44. At day 45, the airway enhanced pause (PenH) values were measured. 48 hours after the last antigen challenges, the mice were sacrificed, the trachea cannulated, and bronchoalveolar lavage (BAL) was performed by four repeated lavages with balanced salt solution (HBSS) injected into the lungs via the trachea. Total cell counts were performed with a hemocytometer after staining with trypan blue, and then cytospins were prepared, and a differential count of 300 cells per slide was performed. To obtain the absolute number of each leukocyte subtype in the lavage, the percentage of each cell type was multiplied by the total number of cells that were recovered from the bronchoalveolar lavage fluid (BALF). Eotaxin in the BALF was measured via ELISA. Four groups of mice were treated as Table 3.1.\nGroup A mice were challenged by PBS only and then treated by PBS, too. Group B mice were immunized by ovalbumin and then treated by PBS only. […]\nAfter antigen challenges, mice serum were prepared and OVA-specific IgE values in serum were detected for evidence of immunization."}, "Eotaxin": {"tested_on": "Eotaxin", "assay": "Eotaxin in BALF by ELISA, OVA-immunized mice", "assay_type": "in vivo, BALB/c mice", "procedure": "as §1\nGroup A mice were challenged by PBS only and then treated by PBS, too. Group B mice were immunized by ovalbumin and then treated by PBS only. Group C mice were immunized by ovalbumin and then treated by arsenic trioxide in a dosage of 2.5 mg per kg for mice. Group D mice were challenged by ovalbumin as group B and C and then treated by arsenic trioxide in a dosage of 5 mg/kg."}, "ssDNA": {"tested_on": "ssDNA", "assay": "Serum IgG anti-ssDNA ELISA in SLE model mice", "assay_type": "in vivo, NZB/NZW mice", "procedure": "In vivo studies on the activity of arsenic compound were carried out by using an experimental animal model of human Systemic Lupus Erythematosus. NZB/NZW denotes the mouse strain that spontaneously develops an autoimmune syndrome having notable similarities to human Systemic Lupus Erythematosus. Autoimmune disease in NZB/NZW mice is characterized by antinuclear antibodies (IgG) production about 4 months of age, and glomerulonephritis with proteinuria is developed when at 9 months of age, and that is the major cause of death (uremia).\nAt 24 weeks of age, mice (3 groups) were treated 3 times per week with PBS (Group I as positive control), 2.5 mg/kg of As2O3 (Group II), or 5 mg/kg of As2O3 (Group III) administered intraperitoneally. The treatment was stopped at 28 weeks of age. Mice were observed daily for clinical signs of disease and for mortality and were bled every 4 weeks for determination of anti-DNA antibody production.\nStandard ELISA assay to measure the serum levels of anti-DNA antibodies was performed as follows. The plates were coated 10 μg/mL mBSA 4° C. overnight before coating dsDNA and ssDNA diluted with PBS to concentration of 7.5 μg/mL. ssDNA was prepared by boiling for 20 min then placed on ice immediately for 20 min. After overnight incubation at 4° C., the plates were washed and blocked with gelatin-PBS solution. The serum was diluted and then added to the appropriate wells, which were then incubated at 37° C. for 45 min. Horseradish peroxidase-comjugated anti-mouse γ-chain-specific antibodies were added. After incubation at 37° C. for 50 min, then room temperature for 10 min, 2,2′-azino-bisC3-ethylbenzthiazoline-6-sulphonic acid (ABTS) solution was used as substrate and the absorbance was measured at 405 nm. The level of anti-DNA IgG is presented as ELISA units (EU/ml) compared with mAb 10F10. The OD value generated by 74 ng/ml of 10F10 Ab was defined as 1 EU/ml for anti-DNA IgG. The level of anti-nucleosome IgG was calculated as EU by comparison with 10F10 Ab. The absorbance value generated by 231 ng/ml of 10F10 Ab was defined as 1 EU/ml of anti-nucleosome IgG."}, "[2]": {"conditions": "Group C: OVA, ATO 2.5 mg/kg i.p. for 7 days"}, "[3]": {"conditions": "Group D: OVA, ATO 5 mg/kg i.p. for 7 days"}}, "note": "Where “and” joins values, the source holds several entries; their conditions need not be identical. Identical values can stand only once. Marks after values point to notes of the source that are not given here."}
{"substance": "arsenic trioxide", "values": [{"measurement": "24 hr % cell death", "setting": "[1]; 0.5 μM", "value": "7.3 ± 1.2", "unit": "%"}, {"measurement": "48 hr % cell death", "setting": "[1]; 0.5 μM", "value": "7.6 ± 0.6", "unit": "%"}, {"measurement": "24 hr % cell death", "setting": "[1]; 2.5 μM", "value": "13.7 ± 1.6", "unit": "%"}, {"measurement": "48 hr % cell death", "setting": "[1]; 2.5 μM", "value": "15.2 ± 2.3", "unit": "%"}, {"measurement": "24 hr % cell death", "setting": "[1]; 5.0 μM", "value": "14.6 ± 2.1", "unit": "%"}, {"measurement": "48 hr % cell death", "setting": "[1]; 5.0 μM", "value": "17.2 ± 1.9", "unit": "%"}, {"measurement": "24 hr % cell death", "setting": "[1]; 10 μM", "value": "17.8 ± 1.8", "unit": "%"}, {"measurement": "48 hr % cell death", "setting": "[1]; 10 μM", "value": "20.3 ± 2.6", "unit": "%"}, {"measurement": "Levels of T cell apoptosis (%) after 48 hr treatment", "setting": "T lymphocytes (CD3+); 1 μM", "value": 36.1, "unit": "%"}, {"measurement": "Levels of T cell apoptosis (%) after 48 hr treatment", "setting": "T lymphocytes (CD3+); 5 μM", "value": "96% and 96.2%"}, {"measurement": "OVA-specific IgE (SI.) in serum, Mean", "setting": "OVA-specific IgE; [2]", "value": 2.20, "unit": "SI."}, {"measurement": "OVA-specific IgE (SI.) in serum, Mean", "setting": "OVA-specific IgE; [3]", "value": 1.96, "unit": "SI."}, {"measurement": "eotaxin in BALF, Mean", "setting": "Eotaxin; [2]", "value": "12.38* pg/ml"}, {"measurement": "eotaxin in BALF, Mean", "setting": "Eotaxin; [3]", "value": 16.00, "unit": "pg/mL"}, {"measurement": "effect on eotaxin level after antigen challenge", "setting": "Eotaxin; especially 2.5 mg/kg, group C vs group B p<0.05", "value": "diminish the eotaxin level"}, {"measurement": "IgG Anti-ssDNA titer", "setting": "ssDNA; 2.5 mg/kg i.p. 3 times per week, before treatment", "value": 0.155, "unit": "ELISA Unit"}, {"measurement": "IgG Anti-ssDNA titer", "setting": "ssDNA; 2.5 mg/kg, 4 weeks after treatment", "value": 0.347, "unit": "ELISA Unit"}, {"measurement": "IgG Anti-ssDNA titer", "setting": "ssDNA; 2.5 mg/kg, 8 weeks after treatment", "value": 0.400, "unit": "ELISA Unit"}, {"measurement": "IgG Anti-ssDNA titer", "setting": "ssDNA; 2.5 mg/kg, 12 weeks after treatment", "value": 0.105, "unit": "ELISA Unit"}, {"measurement": "IgG Anti-ssDNA titer", "setting": "ssDNA; 5 mg/kg i.p. 3 times per week, before treatment", "value": 0.176, "unit": "ELISA Unit"}, {"measurement": "IgG Anti-ssDNA titer", "setting": "ssDNA; 5 mg/kg, 4 weeks after treatment", "value": 0.303, "unit": "ELISA Unit"}, {"measurement": "IgG Anti-ssDNA titer", "setting": "ssDNA; 5 mg/kg, 8 weeks after treatment", "value": 0.296, "unit": "ELISA Unit"}, {"measurement": "IgG Anti-ssDNA titer", "setting": "ssDNA; 5 mg/kg, 12 weeks after treatment", "value": 0.201, "unit": "ELISA Unit"}]}
